# Reference: patent US12616681B2, “Compositions and methods for treating renal injury” (priority 2019, dated 2026)
# Columns and labels:
# Type in all cases: in vivo, C57/BL6 mice
# [1] = tested on: mice with ischemic AKI (bilateral renal IRI); assay: Renal IRI model: proinflammatory cytokines and HMGB1; conditions: 24 h after renal IRI, vs IRI-vehicle mice
# Experimental: Inflammatory cytokine mRNA and protein levels were measured by real-time PCR and ELISA. Kidney tissue and serum were harvested after reperfusion for 24 h. Total RNA was extracted from frozen kidney tissue using TRIzol reagent (ThermoFisher Scientific) according to the manufacturer's protocol. RNA was converted to cDNA using oligo-dT primers. IL-17, TNF-α, and IL-1b mRNA levels were determined by real-time PCR. Serum IL-17 (R&D Systems), TNF-α (R&D Systems), and IL-10 (R&D Systems) were measured using commercial ELISA kits according to the manufacturer's instructions.
# [2] = tested on: mice with ischemic AKI (bilateral renal IRI); assay: Renal IRI model: renal and serum PGE2 after a single pre-IRI dose
# Experimental: (§1) After reperfusion for 24 h, kidney tissues (˜20 mg) were homogenized in cold PBS containing indomethacin (10 μg/mL) and then centrifuged for 10 min at 12,000 rpm. Protein concentrations of supernatant were determined by BCA assay (ThermoFisher Scientific, Rockford, IL). The PGE2 level was measured using a PGE2 ELISA kit (R&D Systems, Minneapolis, MN) in triplicate. PGE2 levels were expressed as nanograms of PGE2 per milligram of protein. Renal function was assessed by determining the serum levels of blood urea nitrogen (BUN; Abcam), serum creatinine (Agilent 6410 LC-MS/MS, Agilent, Santa Clara, CA), lipocalin-2 (R&D Systems), and kidney injury molecule-1 (KIM-1; R&D Systems) after reperfusion for 24 h. Measurement of serum creatinine was by HPLC. Serum creatinine was assessed using an Agilent 6410 LC-MS/MS system coupled with an Agilent 1200 series HPLC system (Agilent). The sample preparation for serum creatinine was that 50 μL of serum samples were mixed with 100 μL of acetonitrile that contained creatinine-d3 as an internal standard (5 μg/mL). The mixture was centrifuged at 13,000 rpm for 10 min after vigorous vortex, and 1 μL of supernatant was then injected into the LC-MS/MS system. The chromatography separation was performed on a Hypersil GOLD C18 column (150×2.1 mm, 3 m, Thermo Scientific) using a mobile phase of 0.1% formic acid solution and acetonitrile [70:30 (vol/vol)]. The flow rate was 0.2 mL/min. Electrospray ionization was performed in the positive ion mode. The capillary voltage was set at 4,000 V. Nitrogen as the nebulizing gas was set at 15 psi, and the drying gas temperature was set at 300° C., with a flow rate of 6 L/min. The multiple-reaction monitoring mode using specific precursor/production transition was used for quantification. Detection of ions was performed by monitoring m/z 114.1→44.1 for creatinine and 117.1→77.1 for creatinine-d3. The collision energies were 10 and 15 eV for creatinine and creatinine-d3, respectively. The peak areas for all analytes were integrated automatically using Agilent Mass Hunter Analysis software (version B.01.04).
# [3] = tested on: mice with ischemic AKI (bilateral renal IRI); assay: Renal IRI model: renal vasodilation and renal Doppler flux (RBF)
# Experimental: The inner arteriolar area of the outer medulla was determined using α-smooth muscle actin (α-SMA)-stained sections. Kidneys were removed without perfusion under inhalational isoflurane anesthesia, divided into three pieces horizontally, immediately fixed in 10% formalin, and then embedded in paraffin. The inner area of α-SMA-positive vessels in the outer medulla was measured using ImageJ. The results are expressed as average areas of renal arteries in the outer medulla. As a surrogate for RBF, we used noninvasive laser Doppler flowmetry (periflux system 5000, Perimed) to measure flux, placing laser-Doppler probes at a fixed position on the kidney surface and recording renal cortical measurements. […] The relative increase represents the percent increase in RDF from baseline to peak for each test.
# [4] = tested on: mice with ischemic AKI (bilateral renal IRI); assay: Renal IRI model: cAMP, AMP and adenosine levels
# Experimental: After reperfusion for 24 h, kidney tissues were harvested, homogenized in 10 volumes of 0.1 M HCl, and centrifuged for 10 min at 12,000 rpm. cAMP levels in kidney tissues and serum were measured using a cAMP Complete ELISA kit (Enzo Life Science, Farmingdale, NY). AMP and adenosine in kidney tissue were assessed by Agilent 6410 LC-MS/MS. Serum adenosine was measured using an assay kit (Abnova, Walnut, CA).
# [5] = tested on: mice with ischemic AKI (bilateral renal IRI); assay: Renal IRI (ischemic AKI) mouse model: renal function markers
# Experimental: as §1, with “Briefly, mice were anesthetized with isoflurane using a vaporizer, and bilateral renal arteries were clamped for 30 min (2, 49). After the ischemic time, clamps were released to induce blood reperfusion. […] Serum and kidney tissue were collected 24 h after renal IRI. […] After” for “After”, “The sample preparation for serum creatinine was that 50 μL of serum samples were mixed with 100 μL of acetonitrile that contained creatinine-d3 as an internal standard (5 μg/mL).” left out, “Detection of ions was performed by monitoring m/z 114.1→44.1 for creatinine and 117.1→77.1 for creatinine-d3. The collision energies were 10 and 15 eV for creatinine and creatinine-d3, respectively.” left out
# [6] = 24 h after renal IRI, vs IRI-vehicle mice, dosing before and after IRI
structure (smiles),measurement,setting,value
CCCC[S+]([O-])c1sc2nc(-c3cccs3)cc(-c3ccccc3)c2c1N (centres unmarked) [SW033291],HMGB1 levels in kidney tissue,[1],reduced
same,induction of IL-10 (protein only),[1],blocked induction
same,induction of IL-17,[1],blocked induction
same,induction of TNF-α,[1],blocked induction
same,renal PGE2 levels,"[2]; 24 h, single pretreatment dose",significantly decreased
same,serum PGE2 levels,"[2]; 24 h, single pretreatment dose",significantly decreased
same,post-IRI peaks of renal PGE2 (immediate and 14 h),[2]; single pre-IRI dose,substantially block
same,RDF-inferred RBF,[3]; 24 h following IRI,completely preserved
same,renal arteriolar area in the outer medulla,"[3]; 24 h post-IRI, vs post-IRI vehicle and sham mice",significantly increased
same,protection from reduction of RDF-inferred RBF,[3]; single dose 1 h before IRI (Pre) vs Pre+Post,somewhat less protection
same,RDF-inferred RBF,"[3]; within 1 h after the first injection, just before AKI",increased inferred RBF above baseline
same,IRI-induced decrease of adenosine in the kidney,[4]; 24 h after IRI,reversed
same,AMP in kidney tissue,[4]; 24 h post-IRI,increased levels
same,serum adenosine,[4]; 24 h post-IRI,Increased
same,renal cAMP,"[4]; 24 h post-IRI, vs sham mice",elevated over sham mice
same,BUN (serum),[5]; [6],significantly reducing
same,KIM-1 (serum),[5]; [6],significantly reducing
same,NGAL (serum),[5]; [6],significantly reducing
same,creatinine (serum),[5]; [6],significantly reducing
same,"induction of NGAL, KIM-1, and creatinine","[5]; single pre-IRI dose (Pre), time course",notable protection
